Here are results for 1 compound from patent US8617614B2, “Sustained release preparation for tissue regeneration therapy” (Ono Pharmaceutical Co., Ltd., priority 2006, dated 2013).

The test system of assay [1] is STZ induced diabetes model. The assay can be described thus: Oral glucose tolerance test (OGTT), insulin, STZ induced diabetes model. In kind it is in vivo. The conditions noted are these: OGTT 2 g/kg, week 13; STZ rat; Test Group 3: 3 mg/kg oral twice daily. The protocol:
Female Sprague-Dawley rats (8- to 11-week-old; Japan SLC, Inc.) were intraperitoneally administered 40 mg/kg of a citrate buffer (pH, approx. 4.5) of streptozotocin (STZ; Sigma). A normal control group was intraperitoneally given only the citrate buffer. Administration was carried out in accordance with the intended route of administration for clinical use. In Test Group 3, forced administration was carried out orally using a disposable syringe barrel and a rat stomach probe. In Test Group 4, intramuscular administration was carried out uniformly at four places within the muscle along the sciatic nerve in the femoral portion of the left leg. For subcutaneous administration in test Group 5, the animals were ether anesthetized, and subcutaneous administration was carried out in the dorsal region using a disposable syringe barrel and a disposable 25 G syringe needle. The volume of solution administered was computed based on the latest body weight. Thirteen weeks after the start of test substance administration, an oral glucose tolerance test (OGTT) was conducted on rats fasted for 18 hours. After drawing blood from the caudal vein of the fasting rats, 2 g/kg of glucose was orally force-fed. About 500 μL of blood was similarly collected from the caudal vein 30, 60 and 120 minutes after glucose administration, of which about 400 μL was EDTA-2Na treated, then centrifuged (3,000 rpm, 4° C., 10 min) with a centrifuge. The plasma was thereby collected, and the blood sugar was measured using a 7170 Clinical Analyzer (Hitachi, Ltd.). The remaining approximately 100 μL of blood was centrifuged (3,000 rpm, 4° C., 10 min) with a centrifuge, the serum was collected, and the insulin level was measured (ELISA method; Levis Insulin Kit (Shibayagi Co., Ltd)).

Assay [2] has as its system STZ induced diabetes model. Nature of the assay: Time course of blood sugar level, STZ induced diabetes model. Particulars: STZ rat, Test Group 3: 3 mg/kg oral twice daily. The format is in vivo. The procedure:
Female Sprague-Dawley rats (8- to 11-week-old; Japan SLC, Inc.) were intraperitoneally administered 40 mg/kg of a citrate buffer (pH, approx. 4.5) of streptozotocin (STZ; Sigma). A normal control group was intraperitoneally given only the citrate buffer. Two weeks after STZ administration, the blood sugar, nerve conduction velocity and body weight were measured, the animals were divided into groups uniform for these properties, and administration of the test substance was begun. To determine the change over time in blood sugar, the blood sugar level was measured 4, 8 and 12 weeks following the start of test solution administration (on the day prior to nerve conduction velocity measurement). The blood sugar level of blood drawn from the caudal vein was measured using a blood sugar analyzer (Antisense II; Bayer-Sankyo). Following measurement of the blood sugar 12 weeks later, the animals were deprived of food for at least 16 hours and the fasting blood sugar and insulin were measured. In addition, a 2 g glucose tolerance test was carried out in which blood was similarly drawn 30, 60 and 120 minutes after sugar loading, and the blood sugar and insulin values were measured. In Groups 2 to 5, the feeding blood sugar level two weeks after STZ administration was measured. Of rats with blood sugar levels above 300 mg/dL, severely diabetic rats were excluded therefrom, and the remaining rats were used as diabetes model animals. Groups were formed in such a way as to make the respective groups uniform with respect to nerve conduction velocity, blood sugar level and body weight. Administration was carried out in accordance with the intended route of administration for clinical use. In Test Group 3, forced administration was carried out orally using a disposable syringe barrel and a rat stomach probe. In Test Group 4, intramuscular administration was carried out uniformly at four places within the muscle along the sciatic nerve in the femoral portion of the left leg. For subcutaneous administration in test Group 5, the animals were ether anesthetized, and subcutaneous administration was carried out in the dorsal region using a disposable syringe barrel and a disposable 25 G syringe needle. The volume of solution administered was computed based on the latest body weight. The amount of microspheres administered indicates the amount of the present drug included.

Molecules are shown by their SMILES.

As to `O=C(O)COc1cccc2c1CCC=C2CCO/N=C(\c1ccccc1)c1cccnc1` [present drug, ({5-[2-({[(1E)-phenyl(pyridin-3-yl)methylene]amino}oxy)ethyl]-7,8-dihydronaphthalen-1-yl}oxy)acetic acid], in assay [1], the “Insulin (ng/mL) After 30 minutes” value worked out at 2.197 ± 2.062 ng/mL, the “Insulin (ng/mL) After 60 minutes” value is 1.808 ± 1.521 ng/mL, the “Insulin (ng/mL) After 120 minutes” value was 2.130 ± 2.087 ng/mL and the “Insulin (ng/mL) Before glucose loading” value was 2.138 ± 1.722 ng/mL. For the same compound, in assay [2], the “Blood sugar (mg/dL) 0 weeks” value is 567 ± 73 mg/dL, the “Blood sugar (mg/dL) 4 weeks” value was 555 ± 39 mg/dL, the “Blood sugar (mg/dL) 8 weeks” value turned out to be 600 ± 64 mg/dL and the “Blood sugar (mg/dL) 12 weeks” value worked out at 510 ± 84 mg/dL. In assay [2] (at any of the times), the “blood sugar relative to Test Group 2” value is listed as “A significant decline in blood sugar was not observed”.
